#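 Results reflect a 48-hour exposure of cells in 96-well plates to compound at five concentrations. Here, GI50 denotes the concentration required for 50% inhibition of growth. Definition used: TGI = concentration required for complete inhibition of growth.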
# What was measured:
# Assay in all cases: DTP human tumour cell line panel, 48 h
# KM20L2 colon = tested on: KM20L2 colon
# DMS 273 small cell lung = tested on: DMS 273 small cell lung
# NCI-H23 lung = tested on: NCI-H23 lung
# SNB-19 CNS = tested on: SNB-19 CNS
# M19-MEL melanoma = tested on: M19-MEL melanoma
# DLD-1 colon = tested on: DLD-1 colon
# RXF 393 renal = tested on: RXF 393 renal
# NCI-H460 lung = tested on: NCI-H460 lung
# MDA-MB-435 = tested on: MDA-MB-435
# MDA-MB-231 breast = tested on: MDA-MB-231 breast
# T-47D breast = tested on: T-47D breast
# PC-3 prostate = tested on: PC-3 prostate
# HOP-18 NSCLC = tested on: HOP-18 NSCLC
Structure (SMILES),TGI (KM20L2 colon) [µM],TGI (DMS 273 small cell lung) [µM],TGI (NCI-H23 lung) [µM],TGI (SNB-19 CNS) [µM],TGI (M19-MEL melanoma) [µM],TGI (DLD-1 colon) [µM],TGI (RXF 393 renal) [µM],TGI (NCI-H460 lung) [µM],TGI (MDA-MB-435) [µM],TGI (MDA-MB-231 breast) [µM],TGI (T-47D breast) [µM],TGI (PC-3 prostate) [µM],TGI (HOP-18 NSCLC) [µM],GI50 (MDA-MB-435) [nM],GI50 (NCI-H23 lung) [µM],GI50 (MDA-MB-231 breast) [nM],GI50 (RXF 393 renal) [µM],GI50 (PC-3 prostate) [nM],GI50 (NCI-H460 lung) [µM],GI50 (T-47D breast) [nM]
CN(CCO)/N=N/c1nc[nH]c1C(N)=O,> 100,> 100,> 100,> 100,> 100,> 100,> 100,> 100,,,,,,,,,,,,
CCOC(=O)/C(=N/Nc1ccc(Cl)cc1)N1C(=S)C=C(C)NN(C)C1=S,,,> 100,> 100,,,41.1,> 100,> 100,> 100,98.3,,,,,,,,,
C/C(=N\NC(=S)Nc1ccc(Cl)cc1)c1nc2ncccc2[nH]1,,,21.5,> 100,,,,4.14,15.1,> 100,20.9,17.4,,,,,,,,
Cc1ncc(CO)c(C=NCCCCCCN=Cc2c(CO)cnc(C)c2O)c1O,,,> 100,> 100,,,> 100,> 100,> 100,> 100,> 100,> 100,,,,,,,,
Cc1nc(N(CCO)CCO)c2sc(=S)n(-c3ccccc3)c2n1,,,> 100,> 100,,> 100,,> 100,,,,,> 100,,,,,,,
NC(=S)N/N=C/c1ccc(OC(=O)COc2ccccc2Cl)cn1,> 100,> 71.6,> 70.5,> 100,> 92.2,> 100,> 100,> 100,,,,,> 100,,,,,,,
COc1cc(C2S/C(=C/c3ccccc3)C(=O)N2c2ccccc2Cl)cc(OC)c1OC (stereo not given),,,> 100,> 100,,,45.1,,56.7,67.3,32.1,58.2,,,,,,,,
COC(=O)C1=C(O)C(C(=O)OC)[C@@]2(O)[C@@H](C(=O)OC)CC[C@@H]1[C@@H]2C(=O)OC (stereo not given in full),,,56.6,> 100,,,61.2,35.9,> 100,83.5,> 100,,,,,,,,,
O=C(O)CN=c1c2ccccc2n(O)c2ccccc12,> 100,> 100,> 100,> 100,> 100,> 100,,> 100,,,,,> 100,,,,,,,
BrC1=CN2C[n+]3cc(Br)c4ccccc4c3N=C2c2ccccc21,,,56.4,32.4,,,,32.9,19.2,34.6,18.8,33.9,,,,,,,,
COc1cc(Cc2ccc3c(c2C#N)N(C)c2ccccc2S3)cc(OC)c1OC,> 100,> 100,> 100,> 100,> 100,> 100,> 100,> 100,,,,,> 100,,,,,,,
C/C([O-])=C(/c1nc(-c2ccc([N+](=O)[O-])o2)no1)[n+]1cc(C)ccc1C,27.5,26.1,24.9,41.5,17.6,24.7,43.2,17.5,,,,,21.8,,,,,,,
Cc1ccc(S(=O)(=O)Nc2cc(Sc3ccccc3)c(O)c3ccccc23)cc1,,,22,,,,9.38,34.5,3.26,6.16,5.99,9.29,,1800,4.44,2430,3.11,2200,17.6,2250
COc1cc2nc(N3CCC[C@@H](NC4=CC(=O)c5ccccc5C4=O)C3)nc(N)c2cc1OC,,,4.3,,,,,4.36,4.14,3.26,3.74,4.16,,2000,1.99,1690,,1910,2.1,1950
CCOC(=O)C(=O)Nc1cccc(C)c1C,> 100,> 100,> 100,> 100,> 100,> 100,,> 100,,,,,> 100,,,,,,,

# Reference: PubChem BioAssay (NCI)
